Measurements: US8835428B2, “Diacylglycerol acyltransferase inhibitors” (Piramal Enterprises Limited, priority 2008, dated 2014)

Molecular target: T1, hDGAT1 (Homo sapiens, UniProt O75907)
T1 construct: host or cells: Sf9 insect cells (baculovirus); microsomal preparation
T1 sequence (O75907 1-488): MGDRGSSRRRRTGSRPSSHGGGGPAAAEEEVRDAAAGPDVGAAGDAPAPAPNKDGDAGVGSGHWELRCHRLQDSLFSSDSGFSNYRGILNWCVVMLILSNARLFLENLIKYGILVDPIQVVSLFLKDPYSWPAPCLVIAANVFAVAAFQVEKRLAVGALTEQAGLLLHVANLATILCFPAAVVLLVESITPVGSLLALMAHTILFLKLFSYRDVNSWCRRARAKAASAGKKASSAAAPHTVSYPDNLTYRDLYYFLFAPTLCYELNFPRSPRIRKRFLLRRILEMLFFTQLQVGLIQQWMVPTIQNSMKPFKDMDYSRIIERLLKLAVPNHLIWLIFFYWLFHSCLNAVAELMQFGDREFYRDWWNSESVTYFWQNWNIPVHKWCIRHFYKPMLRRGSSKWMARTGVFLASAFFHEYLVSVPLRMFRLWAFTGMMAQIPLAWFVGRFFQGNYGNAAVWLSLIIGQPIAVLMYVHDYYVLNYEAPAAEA
Experiment: In-vitro DGAT1 assay (hDGAT1 microsomes from Sf9 cells, 14C oleoyl CoA, triglyceride formation)
Format: biochemical
Conditions: for inhibition at 10 µM / % inhibition of hDGAT1: At 10 μM
How it was run: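 Human DGAT1 in baculovirus-infected Sf9 microsomes (2.5–10 μg), [14C]oleoyl-CoA with 409.5, 1228.5 or 1638 μM 1,2-dioleoyl-sn-glycerol, Tris-HCl pH 7.4 buffer with BSA. Compounds screened at 10, 5 and 1 μM in duplicate. Reaction 10 min at 37 °C; heptane-extracted [14C]triglyceride counted by scintillation.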

For `O=C(Nc1ccc(-c2cc(C(=O)NC(Cc3ccccc3)C(=O)O)on2)cc1)Nc1ccc(F)cc1F` (stereo not drawn) [Example 246, 2-(3-(4-(3-(2,4-Difluorophenyl)ureido)phenyl)isoxazole-5-carboxamido)-3-phenylpropanoic acid], the inhibition at 5 µM was 50 to 75%.
Molecule `C=C(NC(=O)c1cc(-c2ccc(NC(=O)Nc3ccccc3F)cc2)no1)C(=O)O` [Example 302, 2-(3-(4-(3-(2-Fluorophenyl)ureido)phenyl)isoxazole-5-carboxamido) acrylic acid] has an inhibition at 1 µM of 50 to 75%.
Work on `COC(=O)[C@H](Cc1ccc(O)cc1)NC(=O)c1cc(-c2ccc(NC(=O)Nc3ccccc3F)cc2)no1` [Example 274, (S)-Methyl 2-(3-(4-(3-(2-fluorophenyl)ureido)phenyl)isoxazole-5-carboxamido)-3-(4-hydroxyphenyl)propanoate] yielded an inhibition at 5 µM of 0 to 50%.
`COC(=O)[C@@H](NC(=O)c1cc(-c2ccc(NC(=O)Nc3ccc(F)cc3)cc2)no1)C(C)C` [Example 84, (S)-2-[(3-{4-[3-(4-Fluoro-phenyl}-ureido]-phenyl)-isoxazole-5-carbonyl)-amino]-3-methyl-butyric acid methyl ester] gave an inhibition at 10 µM of 50 to 75%.
Molecule `COC(=O)[C@H](NC(=O)c1cc(-c2ccc(NS(=O)(=O)c3c(F)cccc3F)cc2)no1)C(C)C` [Example 316, (R)-Methyl 2-(3-(4-(2,6-difluorophenylsulfonamido)phenyl)isoxazole-5-carboxamido)-3-methylbutanoate] has an inhibition at 1 µM of 0 to 50%.
`COC(=O)[C@@H]1CCCN1C(=S)c1cc(-c2cccc(Nc3nc4ccc(F)cc4s3)c2)no1` [Example 36, (S)-1-{3-[3-(6-Fluoro-benzothiazol-2-ylamino)-phenyl]-isoxazole-5-carbothioyl}-pyrrolidine-2-carboxylic acid methyl ester] showed an inhibition at 10 µM of 50 to 75%.
Molecule `Cc1cc(NC(=O)Nc2ccccc2F)ccc1-c1cc(C(=O)NC(C(=O)O)C(C)C)on1` (stereo not drawn) [Example 136, 2-(3-(4-(3-(2-Fluorophenyl)ureido)-2-methylphenyl)isoxazole-5-carboxamido)-3-methylbutanoic acid] has an inhibition at 5 µM of 75 to 100%.
For `CC(C)[C@@H](NC(=O)c1cc(-c2ccc(NC(=O)Nc3ccccc3Cl)cc2)no1)C(=O)O` [Example 221, (R)-2-(3-(4-(3-(2-Chlorophenyl)ureido)phenyl)isoxazole-5-carboxamido)-3-methylbutanoic acid], the inhibition at 1 µM was 75 to 100%.
`O=C(O)[C@@H]1CCCN1C(=O)c1cc(-c2ccc(Nc3nc4ccc(F)cc4s3)cc2)no1` [Example 19, (S)-1-{3-[4-(6-Fluoro-benzothiazol-2-ylamino)-phenyl]-isoxazole-5-carbonyl}-pyrrolidine-2-carboxylic acid] gave an inhibition at 10 µM of 50 to 75%.
For `CC(C)[C@H](NC(=NO)c1cc(-c2cccc(Nc3nc4ccc(F)cc4s3)c2)no1)C(=O)O` [Example 27, (S)-2-({3-[3-(6-Fluoro-benzothiazol-2-ylamino)-phenyl]-N-hydroxy-isoxazole-5-carboximidoyl}-amino)-3-methyl-butyric acid], the inhibition at 10 µM was 0 to 50%.
For `O=C(N[C@H](C(=O)O)c1ccccc1)c1cc(-c2ccc(Nc3nc4ccc(F)cc4s3)cc2)no1` [Example 53, (S)-({3-[4-(6-Fluoro-benzothiazol-2-ylamino)-phenyl]-isoxazole-5-carbonyl}-amino)-phenyl-acetic acid], the inhibition at 10 µM was 75 to 100%.
With `CCS/C(=N\[C@@H](C(=O)OC)C(C)C)c1cc(-c2ccc(NC(=O)Nc3ccccc3F)cc2)no1` [Example 224, (R,Z)-Methyl 2-(ethylthio(3-(4-(3-(2-fluorophenyl)ureido)phenyl)isoxazol-5-yl)methyleneamino)-3-methylbutanoate] the inhibition at 1 µM was 0 to 50%.
Molecule `COC(=O)C(NC(=O)c1cc(-c2ccc(OCc3ccccc3C(F)(F)F)cc2)no1)C(C)C` (stereo not drawn) [Example 329, Methyl 3-methyl-2-(3-(4-(2-(trifluoromethyl)benzyloxy)phenyl)isoxazole-5-carboxamido)butanoate] has an inhibition at 1 µM of 0 to 50%.
In the case of `COC(=O)[C@H](NC(=O)c1cc(-c2ccc(NC(=O)Nc3ccc(C#N)cc3)cc2)no1)C(C)C` [Example 218, (R)-methyl 2-(3-(4-(3-(4-cyanophenyl)ureido)phenyl)isoxazole-5-carboxamido)-3-methylbutanoate], the inhibition at 1 µM is reported as 0 to 50%.
With `NC(=S)c1cc(-c2ccc(Nc3nc4ccc(F)cc4s3)cc2)no1` [Example 4, 3-[4-(6-Fluoro-benzothiazol-2-ylamino)-phenyl]-isoxazole-5-carbothioic acid amide] the inhibition at 10 µM was 0 to 50%.
`CC(C)[C@H](NC(=O)c1c(-c2ccc(Nc3nc4ccc(F)cc4s3)cc2)noc1-c1ccccc1)C(=O)O` [Example 69, (S)-2-({3-[4-(6-Fluoro-benzothiazol-2-ylamino)-phenyl]-5-phenyl-isoxazole-4-carbonyl}-amino)-3-methyl-butyric acid] was tested, and the inhibition at 10 µM was 0 to 50%.
Molecule `O=C(Nc1ccc(-c2cc(C(=O)NC(Cc3ccccc3)C(=O)O)on2)cc1)Nc1ccccc1F` (stereo not drawn) [Example 242, 2-(3-(4-(3-(2-Fluorophenyl)ureido)phenyl)isoxazole-5-carboxamido)-3-phenylpropanoic acid] has an inhibition at 5 µM of 50 to 75%.
`CC(C)C[C@H](NC(=O)c1cc(-c2ccc(Nc3nc4ccc(F)cc4s3)cc2)no1)C(=O)O` [Example 47, (S)-2-({3-[4-(6-fluoro-benzothiazol-2-ylamino)-phenyl]-isoxazole-5-carbonyl}-amino)-4-methyl-pentanoic acid] gave an inhibition at 10 µM of 75 to 100%.
Molecule `COC(=O)[C@H](CC(C)C)NC(=S)c1cc(-c2ccc(Nc3nc4ccc(F)cc4s3)cc2)no1` [Example 48, (S)-2-({3-[4-(6-Fluoro-benzothiazol-2-ylamino)-phenyl]-isoxazole-5-carbothioyl}-amino)-4-methyl-pentanoic acid methyl ester] has an inhibition at 10 µM of 0 to 50%.
Work on `COC(=O)C(NC(=O)c1cc(-c2ccc(NC(=O)Nc3ccc(-c4cc(C(=O)NC(C(=O)OC)C(C)C)on4)cc3)cc2)no1)C(C)C` (stereo not drawn) [Example 281, 2-({3-[4-(3-{4-[5-(1-Methoxycarbonyl-2-methyl-propylcarbamoyl)-isoxazol-3-yl]-phenyl}-ureido)-phenyl]-isoxazol-5-carbonyl}-amino)-3-methyl-butyric acid methyl ester] yielded an inhibition at 5 µM of 0 to 50%.
For `CC(C)C(NC(=O)c1cc(-c2ccc(NC(=O)Nc3ccccc3F)c(F)c2)no1)C(=O)O` (stereo not drawn) [Example 148, 2-(3-(3-fluoro-4-(3-(2-fluorophenyl)ureido)phenyl)isoxazole-5-carboxamide)-3-methylbutanoic acid], the “% inhibition of hDGAT1” value was “+++ (>75% Inhibition ≦100)”.
Molecule `CC(C)[C@@H](N/C(=N/O)c1cc(-c2ccc(NC(=O)Nc3ccccc3F)cc2)no1)C(=O)O` [Example 226, (R,E)-2-(3-(4-(3-(2-Fluorophenyl)ureido)phenyl)-N′-hydroxyisoxazole-5-carboximidamido)-3-methylbutanoic acid] has an inhibition at 1 µM of 0 to 50%.
With `COC(=O)[C@@H](NC(=O)c1cc(-c2ccc(NC(=O)NC3CCCCC3)cc2)no1)C(C)C` [Example 80, (S)-2-(S)-2-({3-[4-(3-cyclohexyl-ureido)-phenyl]-isoxazole-5-carbonyl}-amino)-3-methyl-butyric acid methyl ester] the “% inhibition of hDGAT1” value was “++ (>50% Inhibition ≦75)”.
`CC(C)C(NC(=O)c1cc(-c2ccc(NC(=O)Nc3cc(F)cc(F)c3)cc2)no1)C(=O)O` (stereo not drawn) [Example 160, 2-(3-(4-(3-(3,5-difluorophenyl)ureido)phenyl)isoxazole-5-carboxamido)-3-methylbutanoic acid] showed an inhibition at 1 µM of 75 to 100%.
